# Assay results from patent US11168080B2, “Dynamin-1-like protein inhibitors” (Mitobridge, Inc., priority 2017, dated 2021).
# Target: Drp1 (Homo sapiens (Human), UniProt O00429)
# Assay: Drp1 Activity Screen: colorimetric (malachite green) GTPase assay
# Assay type: biochemical
# Conditions: 1 mM GTP, 20 min at 37° C.; for IC50: GTPase activity, 0.6 μM Drp1 preincubated with 0.1 mg/mL liposomes; for max % inh: max % inhibition of Drp1 GTPase activity, 0.6 μM Drp1, 0.1 mg/mL liposomes
# Protocol: The GTPase activity of Drp1 was assayed using a colorimetric assay similar to as described previously by Leonard M. et al. “Robust colorimetric assays for dynamin's basal and stimulated GTPase activities.” Methods Enzymol. […] Briefly, for GTPase assays of purified Drp1 inhibitor samples, 0.6 μM Drp1 preincubated with 0.1 mg/mL liposomes (consisting of 80% soybean lipids/20% cardiolipin) and inhibitor was added to 1 mM GTP in a microtiter plate for 20 min at 37° C. in 4 mM MgCl2, 10 mM Hepes (pH 7.0), 100 mM KCl, 1 mM DTT. Reactions were stopped by diluting with 0.5 mM EDTA. Samples were then incubated with malachite green reagent (1 mM malachite green and 50 mM ammonium molybdate in 1 N HCl), and the absorbance at 650 nm was measured. The reaction rates, IC50 values, and max % inhibition were determined using Excel/GraphPad Prism software.
# Drp1, sequence (O00429 whole entry): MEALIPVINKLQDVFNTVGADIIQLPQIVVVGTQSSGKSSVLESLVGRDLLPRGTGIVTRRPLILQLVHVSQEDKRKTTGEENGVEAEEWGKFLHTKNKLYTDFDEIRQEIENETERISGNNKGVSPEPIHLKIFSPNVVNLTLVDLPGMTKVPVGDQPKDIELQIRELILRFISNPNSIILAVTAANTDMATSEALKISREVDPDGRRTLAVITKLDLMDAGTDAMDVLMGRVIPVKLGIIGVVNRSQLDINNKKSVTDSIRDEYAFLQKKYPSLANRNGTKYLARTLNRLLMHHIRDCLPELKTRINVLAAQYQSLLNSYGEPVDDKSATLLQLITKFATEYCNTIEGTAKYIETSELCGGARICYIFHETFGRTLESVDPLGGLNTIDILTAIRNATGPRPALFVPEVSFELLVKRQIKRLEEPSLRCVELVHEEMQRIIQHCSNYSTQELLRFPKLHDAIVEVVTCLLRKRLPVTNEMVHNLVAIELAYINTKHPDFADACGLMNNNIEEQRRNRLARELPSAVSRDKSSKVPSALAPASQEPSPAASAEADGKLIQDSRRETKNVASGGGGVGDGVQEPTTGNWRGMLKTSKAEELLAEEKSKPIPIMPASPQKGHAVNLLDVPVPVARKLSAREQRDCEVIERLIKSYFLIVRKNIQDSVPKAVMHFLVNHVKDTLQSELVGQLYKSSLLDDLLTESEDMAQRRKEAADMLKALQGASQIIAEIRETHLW
SMILES,IC50,max % inh
"Cc1cc(C(=O)Nc2ccncc2)n(Cc2csc(N3CCCCC3)n2)c1 [Compound A-32, 4-methyl-1-((2-(piperidin-1-yl)thiazol-4-yl)methyl)-N-(pyridin-4-yl)-1H-pyrrole-2-carboxamide]",10.3 µM,
"Cc1cc(C(=O)Nc2ccc(C(=O)O)cc2)n(Cc2csc(N3CCOCC3)n2)c1 [Compound A-12, 4-(4-methyl-1-((2-morpholinothiazol-4-yl)methyl)-1H-pyrrole-2-carboxamido)benzoic Acid]",25 µM,
"O=C(O)c1ccc(NC(=O)c2ccccc2Cc2csc(N3CCCCC3)n2)cc1 [Compound A-11, 4-(2-((2-(piperidin-1-yl)thiazol-4-yl)methyl)benzamido)benzoic Acid]",> 100 µM,
"Cc1cc(C(=O)Nc2ccc(C(=O)O)cc2)n(Cc2cccc(N3CCCCC3)n2)c1 [Compound A-16, 4-(4-methyl-1-((6-(piperidin-1-yl)pyridin-2-yl)methyl)-1H-pyrrole-2-carboxamido)benzoic Acid]",1.7 µM,
"Cc1cc(C(=O)NC2CCCOC2)n(Cc2csc(N3CCCCC3)n2)c1 (stereo not drawn) [Compound A-27, 4-methyl-1-((2-(piperidin-1-yl)thiazol-4-yl)methyl)-N-(tetrahydro-2H-pyran-3-yl)-1H-pyrrole-2-carboxamide]",9.6 µM,
"Cc1cc(C(=O)Nc2ccc(I)cc2)n(Cc2csc(N3CCCCC3)n2)c1 [Compound A-33, N-(4-iodophenyl)-4-methyl-1-((2-(piperidin-1-yl)thiazol-4-yl)methyl)-1H-pyrrole-2-carboxamide]",4.5 µM,34%
"CC(=O)NS(=O)(=O)c1ccc(NC(=O)c2cc(C)cn2Cc2csc(N3CCCCC3)n2)cc1 [Compound A-6, N-(4-(N-acetylsulfamoyl)phenyl)-4-methyl-1-((2-(piperidin-1-yl)thiazol-4-yl)methyl)-1H-pyrrole-2-carboxamide]",5 µM,71%
"O=C(Nc1ccc(CO)cc1)c1cc(Br)cn1Cc1csc(N2CCCCC2)n1 [Compound A-63, 4-bromo-N-(4-(hydroxymethyl)phenyl)-1-((2-(piperidin-1-yl)thiazol-4-yl)methyl)-1H-pyrrole-2-carboxamide]",3.4 µM,68%
"Cc1cc(C(=O)NCc2ccc(C(=O)O)cc2)n(Cc2csc(N3CCCCC3)n2)c1 [Compound A-1, 4-((4-methyl-1-((2-(piperidin-1-yl)thiazol-4-yl)methyl)-1H-pyrrole-2-carboxamido)methyl)benzoic Acid]",6.4 µM,
"CCN(CC)c1nc(Cn2cc(C)cc2C(=O)Nc2ccc(C(=O)O)cc2)cs1 [Compound A-9, 4-(1-((2-(diethylamino)thiazol-4-yl)methyl)-4-methyl-1H-pyrrole-2-carboxamido)benzoic Acid]",51 µM,

# Further lines, with some results ahead:
IC50,SMILES,max % inh
2.5 µM,"Cc1cc(C(=O)Nc2ccc(C(=O)O)c(C)c2)n(Cc2csc(N3CCCCC3)n2)c1 [Compound A-61, 2-methyl-4-(4-methyl-1-((2-(piperidin-1-yl)thiazol-4-yl)methyl)-1H-pyrrole-2-carboxamido)benzoic Acid]",
2.3 µM,"O=C(O)c1ccc(NC(=O)c2cc(Cl)cn2Cc2csc(N3CCCCC3)n2)cc1 [Compound A-70, 4-(4-chloro-1-((2-(piperidin-1-yl)thiazol-4-yl)methyl)-1H-pyrrole-2-carboxamido)benzoic Acid]",
> 100 µM,"Nc1cc(C(=O)Nc2ccc(C(=O)O)cc2)n(Cc2csc(N3CCCCC3)n2)c1 [Compound A-53, 4-(4-Amino-1-((2-(piperidin-1-yl)thiazol-4-yl)methyl)-1H-pyrrole-2-carboxamido)benzoic acid]",
30.5 µM,"Cc1cn(Cc2csc(N3CCCCC3)n2)c(C(=O)Nc2ccc(C(=O)O)cc2)c1C [Compound A-68, 4-(3,4-dimethyl-1-((2-(piperidin-1-yl)thiazol-4-yl)methyl)-1H-pyrrole-2-carboxamido)benzoic acid]",
4.2 µM,"Cc1cc(C(=O)Nc2ccc3c(c2)CC(=O)N3)n(Cc2csc(N3CCCCC3)n2)c1 [Compound A-41, 4-methyl-N-(2-oxoindolin-5-yl)-1-((2-(piperidin-1-yl)thiazol-4-yl)methyl)-1H-pyrrole-2-carboxamide]",
1.2 µM,"Cc1cc(C(=O)Nc2ccc(-c3ccoc3)cc2)n(Cc2csc(N3CCCCC3)n2)c1 [Compound A-38, N-(4-(furan-3-yl)phenyl)-4-methyl-1-((2-(piperidin-1-yl)thiazol-4-yl)methyl)-1H-pyrrole-2-carboxamide]",
> 100 µM,"CC(=O)c1cc(C(=O)Nc2ccc(C(=O)O)cc2)n(Cc2csc(N3CCCCC3)n2)c1 [Compound A-56, 4-(4-acetyl-1-((2-(piperidin-1-yl)thiazol-4-yl)methyl)-1H-pyrrole-2-carboxamido)benzoic Acid]",
1.4 µM,"Cc1cc(C(=O)Nc2ccc(-c3c(C)noc3C)cc2)n(Cc2csc(N3CCCCC3)n2)c1 [Compound A-36, N-(4-(3,5-dimethylisoxazol-4-yl)phenyl)-4-methyl-1-((2-(piperidin-1-yl)thiazol-4-yl)methyl)-1H-pyrrole-2-carboxamide]",
